Consider four molecules from US20220185795A1, “COMPOUND FORM HAVING ENHANCED BIOAVAILABILITY AND FORMULATIONS THEREOF” (PTC THERAPEUTICS, INC., priority 2019, published 2022).

In brackets after ≈: the same amount, converted by molar mass. Entries after “also recorded” stand apart in the source; their conditions may differ.

As usually defined, the pKa is the pH at which an ionisable group is half protonated. As a reminder, the solubility is the concentration that dissolves in the medium under given conditions. Read a low solubility as little dissolved substance.

Data set [1] can be described thus: Polymorph stability studies. In kind it is physicochemical. The settings on record: crystalline polymorphs. The text has this:
(§1) The terms “Form A” and “Form B” refer to forms of Compound A that are purified anhydrous crystalline polymorph forms.

Data set [2] in a line: Biopharmaceutics Classification System (BCS) class. The note with it: stable crystalline form.
Description: The Biopharmaceutics Classification System (BCS) is a system developed by the U.S. Food and Drug Administration (FDA) to differentiate forms of active pharmaceutical ingredients (API) based on their solubility and intestinal permeability, as follows: Class I: high solubility, high permeability; Class II: low solubility, high permeability; Class III: high solubility, low permeability, and Class IV: low solubility, low permeability. Formulating compositions of a BCS II-type API to enhance solubility and thus improve bioavailability can be a challenge.
as §1

Data set [3] is described as follows: Storage stability study of SDD tablets. Type of data set: physicochemical. The settings on record: tablet form, a year at 40° C./75% relative humidity (RH). The text has this:
Granules were obtained through dry granulation, milling and mixing process. A dry granulation was obtained by sieving together a mixture of microcrystalline cellulose, lactose monohydrate, croscarmellose sodium, Poloxamer 407, colloidal silicon dioxide and the SDD, then adding magnesium stearate and mixing to obtain a first admixture. The density of the first admixture was increased by dry granulation to provide a first portion of granules. A second portion of magnesium stearate was sieved with a 30-mesh sieve, then combined with the first portion of granules and mixed in a V-blender for 2 minutes to obtain a second admixture. The second portion of granules were then obtained using a roller compactor and milled. The milled granules were added to the V-blender and mixed with the extragranular excipient's microcrystalline cellulose, lactose monohydrate and croscarmellose sodium. The extragranular excipients were sieved through a 30-mesh sieve, then added to the V-blender and mixed with the granules for 2 minutes to provide a third admixture. The third admixture was compressed into different tablet strengths using die that provided conforming tablet sizes.
Active formulation tablets having the composition as described in Table 10 were tested for stability under different storage conditions.

Data set [4] is described as follows: pKa of aromatic amino group. Type of data set: physicochemical. The note with it: weakly basic aromatic amino group.
A short description of data set [5]: Dynamic Vapor Sorption (DVS). In kind it is physicochemical. The settings on record: at 95% RH.
Data set [6] can be described thus: Solubility in aqueous phosphate buffer and FaSSIF, pH 6.5. Type of data set: physicochemical.

Regarding `Cc1nc2ccc(F)cc2n1-c1nc(N)c(F)c(Nc2ccc(C(F)(F)F)cc2)n1` [Form A, 5-fluoro-2-(6-fluoro-2-methyl-1H-benzimidazol-1-yl)-N-[4-(trifluoromethyl)phenyl]pyrimidine-4,6-diamine], the polymorph stability result in data set [1] is on record as “more stable than Form B; also recorded: most stable anhydrous crystalline form”. The BCS class result in data set [2] is given as “BCS II substance”.

Regarding `Cc1nc2ccc(F)cc2n1-c1nc(N)c(F)c(Nc2ccc(C(F)(F)F)cc2)n1` [Compound A, 5-fluoro-2-(6-fluoro-2-methyl-1H-benzimidazol-1-yl)-N-[4-(trifluoromethyl)phenyl]pyrimidine-4,6-diamine], the “chemical and physical stability (XRPD and mDSC)” value in data set [3] is “both chemically and physically stable in tablet form and remained in an amorphous state”.

On to `Cc1nc2ccc(F)cc2n1-c1nc(N)c(F)c(Nc2ccc(C(F)(F)F)cc2)n1` [Form I, 5-fluoro-2-(6-fluoro-2-methyl-1H-benzimidazol-1-yl)-N-[4-(trifluoromethyl)phenyl]pyrimidine-4,6-diamine], for which the pKa in data set [4] was less than 3. The water absorption entry in data set [5] is “approximately 1.3%”. The solubility was roughly 18 µg/mL (≈ 42.8 µM) in data set [6] (Fasted State Intestinal Fluid (FaSSIF) at pH 6.5) and less than 1 µg/mL in data set [6] (aqueous phosphate buffer at pH 6.5).

Consider `Cc1nc2ccc(F)cc2n1-c1nc(N)c(F)c(Nc2ccc(C(F)(F)F)cc2)n1` [Form B, 5-fluoro-2-(6-fluoro-2-methyl-1H-benzimidazol-1-yl)-N-[4-(trifluoromethyl)phenyl]pyrimidine-4,6-diamine], for which, in data set [1], the polymorph stability entry is recorded as “converts to Form A”.
